Where two headings read alike, the source gives them in different places. One block for each molecule: values may come before it.
Experiments:
[1] = system: resting anal sphincter pressure; assay: Bethanechol dose ranging study in healthy volunteers; assay type: in vivo, human
From the text: Bethanechol cream at concentrations of 0.05%, 0.1%, 0.5% and 1% w/w bethanechol were made up in accordance with example 1. The compositions were studied following initial experimentation in an open way to determine a clinically effective dose range. […] Maximal effect was produced by application of 0.1% bethanechol and higher concentrations of the cream produced no additional effect. At 0.1% w/w bethanechol, the mean resting pressure was reduced from about 110 cm to about 85 cm H2O (about 25% decrease). A typical ‘one inch’ application of this cream from the tube is equivalent to 400 mcg of bethanechol.

[2] = system: chronic anal fissures; assay: Open study of bethanechol cream in patients with chronic anal fissures; assay type: in vivo, human; conditions: 0.1% cream three times daily
From the text: The 0.1% bethanechol cream of example 3 was applied to the anus three times daily for an eight week course to treat patients suffering from chronic anal fissures (in an uncontrolled, open, pilot study). To date, 6 patients have been treated and followed up for 3 to 5 weeks. Four patients have had complete resolution of symptoms, of whom 3 have complete and 1 partial healing of the fissure. In all of these 4 patients there has been a reduction of the maximum resting anal sphincter pressure to within normal limits. One patient discovered they were pregnant and treatment was discontinued. The last patient has had no relief and remains symptomatic after 4 weeks' follow up.

[3] = system: resting anal sphincter pressure; assay: Diltiazem dose ranging study on healthy volunteers, eight channel water perfused manometer; assay type: in vivo, human
From the text: Concentrations of diltiazem cream used were 0.1%, 0.5%, 1%, 2%, 5% and 10%. […] The maximal effect, at which the mean resting anal pressure was lowered by 28% (P<0.0001), was produced by 2% w/w cream (See FIG. 1).

[4] = system: chronic anal fissures; assay: Open study of diltiazem cream in patients with anal fissures; assay type: in vivo, human
From the text: 2% diltiazem cream from example 2 was applied to the anus three times daily for 8 weeks to treat patients suffering from chronic anal fissures (in an uncontrolled, open, pilot study). To date, 7 patients were studied and followed up between 2 to 5 weeks. 5 patients have had complete resolution of symptoms, of whom 3 have complete and 2 partial healing of the fissure. In four of these 5 patients there has been a reduction of the maximum resting anal sphincter pressure to within normal limits. The last patient, though symptom free, continues to have a high anal resting pressure.
2 patients have only had two weeks of treatment and one is symptom free after this short period, whilst the other still has occasional pain. It is too early to comment on healing of fissures in these two patients.

[5] = system: mean anal resting pressure; assay: Study of example 4 repeated using oral diltiazem
[6] = system: internal anal resting pressure; conditions: given orally at 60 mg; cited from earlier work
[7] = system: internal anal resting pressure; conditions: topical use; cited from earlier work
[8] = system: maximum resting pressures in the anal canal; conditions: after 1 hour, patients with anal fissures; cited from earlier work
[9] = among the four patients with complete resolution of symptoms
[10] = 2% cream three times daily, among the 5 patients with complete resolution of symptoms

Compound: CC(C[N+](C)(C)C)OC(N)=O (centres unmarked) [bethanechol]
decrease of mean resting pressure ([1]; 0.1% w/w bethanechol topical, healthy volunteers): about 25%
mean resting pressure after application ([1]; 0.1% w/w bethanechol topical, healthy volunteers, reduced from about 110 cm): about 85 cm H2O
effect on resting anal sphincter pressure ([1]; topical 0.05%, 0.1%, 0.5% and 1% w/w): dose dependent reduction
effect of a single application sustained from ([1]; topical bethanechol, healthy volunteers (FIG. 4: 0.1% w/w gel)): 3 to 5 h
concentration producing the maximal effect on resting anal sphincter pressure ([1]; topical, 0.05%, 0.1%, 0.5% and 1% w/w tested, higher concentrations no additional effect): 0.1%
patients with complete resolution of symptoms ([2]; 6 patients treated, follow up 3 to 5 weeks): Four
patients with complete healing of the fissure [2, 9]: 3 patients
patients with partial healing of the fissure [2, 9]: 1 patients
patients with reduction of the maximum resting anal sphincter pressure to within normal limits ([2]; of the 4 symptom-free patients): 4 patients

patients who noticed postural dizziness ([5]; 60 mg oral twice a day): two
Compound: COc1ccc([C@@H]2Sc3ccccc3N(CCN(C)C)C(=O)[C@@H]2OC(C)=O)cc1 [diltiazem]
mean resting anal pressure lowered by ([3]; 2% w/w cream, topical to anus, ten healthy volunteers, maximal effect, P<0.0001): 28%
effect on resting anal sphincter pressure ([3]; topical cream 0.1%, 0.5%, 1%, 2%, 5% and 10%): dose dependent reduction
effect of a single application sustained for ([3]; topical diltiazem, healthy volunteers (FIG. 2: 1% w/w gel)): 3 to 5 h
patients with complete resolution of symptoms ([4]; 2% cream three times daily, 7 patients studied, follow up 2 to 5 weeks): 5 patients
patients with complete healing of the fissure [4, 10]: 3 patients
patients with partial healing of the fissure [4, 10]: 2 patients
patients with reduction of the maximum resting anal sphincter pressure to within normal limits ([4]; 2% cream three times daily, of the 5 symptom-free patients): four
patients symptom free after two weeks of treatment ([4]; 2% cream, of the 2 patients with only two weeks of treatment): one
effect on mean anal resting pressure ([5]; 60 mg oral once a day): no notable effect
mean anal resting pressure reduced by ([5]; 60 mg oral twice a day, P=0.008): 17%
effect on internal anal resting pressure [6]: reduce internal anal resting pressure

Compound: O=[N+]([O-])OCC(CO[N+](=O)[O-])O[N+](=O)[O-] [glyceryl trinitrate]
effect on internal anal resting pressure [7]: reduces the internal anal resting pressure

Compound: O=C(NC1CCN(CCc2c[nH]c3ccccc23)CC1)c1ccccc1 [indoramin]
reduction of maximum resting pressures in the anal canal [8]: 35.8%
